Strand notation (5' to 3'): a small letter for the sugar, then the base; units joined by * are phosphorothioate-linked, units joined directly phosphodiester-linked; [ ] holds rarer units or linkages, { } end groups; capitals alone tell only the bases. [HEG] = hexaethylene glycol spacer joining aptamer pieces; [invdT] = inverted (3'-3') thymidine; d = 2'-deoxy (DNA); m = 2'-O-methyl
What was measured:
PDGF BB [1] = molecular target: T1, PDGF BB (Homo sapiens, UniProt P01127); experiment: ERK phosphorylation assay in 3T3 cells; assay type: cell-based, mouse; set-up: purchased R&D Systems, Minneapolis, Minn; details: 10 ng/ml PDGF-BB, 30 minutes
Procedure: ERK phosphorylation was used to test whether ARC124 (SEQ ID NO:11) retained its functionality after the incorporation of CpG motifs into the aptamer sequence. One hundred and fifty thousand 3T3 cells (a mouse fibroblast cell line which contains PDGF-R) were plated into an appropriate number of wells on a 12 well plate one day prior to the experiment and serum starved in 0.5% FBS overnight. Cells were treated with 10 ng/ml PDGF-BB (R&D Systems, Minneapolis, Minn.) in the presence or absence of CpG-island containing PDGF aptamers for 30 minutes. […] Protein concentration in cell lysates was determined using BIO-RAD protein assay reagent according to manufacturer's recommendations (Bio-Rad, Hercules, Calif.). Lysates were prepared by adding NuPage LDS Sample Buffer 4× with 0.1M DTT to a final concentration of 1× (invitrogen, Carlsbad, Calif.) and incubated at 70° C. for 7 minutes. Forty micrograms of total protein was loaded into each well of a NuPage 10%, Bis-Tris gel (Invitrogen, Carlsbad, Calif.). The gel was run at 100 mAmp for 1 hour. Gel was then transferred to a HyBond ECL nitrocellulose membrane (Amersham, Piscataway, N.J.) at 250 mAmp for 3 hours. After transfer, the nitrocellulose was blocked with 5% BSA (Sigma, St. Louis, Mo.) in PBS for one hour at room temperature. The nitrocellulose membrane was incubated with a p44/42 MAP Kinase antibody overnight at 4° C. […]

PDGF BB [2] = molecular target: T1, PDGF BB; experiment: Dot-blot binding assay, PDGF BB
Procedure: (§1) Binding data for the constituent aptamers and the multivalent aptamers were collected by dot-blot assays in which radio-labeled aptamer is incubated with protein target and then forced through a sandwich of nitrocellulose over nylon and the results shown in FIG. 22. Protein-associated radio-label is captured on the nitrocellulose membrane while the balance of the radio-label is captured on the nylon membrane. The radio-label data is collected on a phosphorimaging plate. […] The multivalent aptamers TK.131.012.A (SEQ ID NO. 9) and TK.131.012.B (SEQ ID NO. 10) were made synthetically.

VEGF = molecular target: T2, VEGF (Homo sapiens, UniProt P15692); experiment: Dot-blot binding assay, VEGF
T2 sequence (P15692 27-191 isoform P15692-4): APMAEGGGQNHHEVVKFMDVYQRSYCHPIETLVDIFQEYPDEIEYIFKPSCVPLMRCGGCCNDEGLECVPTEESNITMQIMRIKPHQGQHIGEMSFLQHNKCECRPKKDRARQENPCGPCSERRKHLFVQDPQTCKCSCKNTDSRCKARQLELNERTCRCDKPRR
Procedure: as §1

PDGF-AA = molecular target: T3, PDGF-AA (Homo sapiens, UniProt P04085); experiment: Competition binding assay, PDGF-AA
T3 construct: purchased PeproTech, Rocky Hill, N.J
Text: (§2) Next, a study was done to determine whether ARC126 cross reacted with PDGF-BB of species other than human. Competition binding assays were set up by dot blot analysis, as previously described, using human, rat, and mouse PDGF-BB (PeproTech, Rocky Hill, N.J.).
(§3) The competitive binding assay previously described was used to determine the in vitro binding affinity and selectivity of ARC594 for different PDGF isoforms. Different concentrations of unlabeled, competitor aptamer were titrated in separate reactions against a fixed (<0.1 nM) amount of ^32P-radiolabeled ARC594 in buffer containing a fixed amount (0.1 nM) of the aptamer's cognate target (PDGF-BB; PeproTech). UnPEGylated version of ARC594 was radiolabeled at the 5′ terminus by incubation with γ-^32P-ATP (ICN) and polynucleotide kinase (NEB). Binding reactions were carried out in phosphate-buffered saline (Cellgro) containing 0.2 mg/mL bovine serum albumin (NEB) and 0.02 mg/mL tRNA (Sigma). […] The data was expressed as the ratio of the counts per minute (CPM) of radioactivity due to ^32P-ARC594 bound to PDGF BB on the nitrocellulose membrane (CPMnitrocellulose or CPMnc) over the total CPM (CPMtotal=CPMnitrocellulose+CPMnylon).

PDGF-BB [3] = molecular target: T4, PDGF-BB (Rattus norvegicus, UniProt Q05028); experiment: Competition binding assay, rat PDGF-BB
T4 construct: purchased PeproTech, Rocky Hill, N.J
Text: as §2

PDGF-BB [4] = molecular target: T5, PDGF-BB (Mus musculus, UniProt P31240); experiment: Competition binding assay, mouse PDGF-BB
T5 construct: purchased PeproTech, Rocky Hill, N.J
Text: as §2

PDGF BB [5] = molecular target: T1, PDGF BB; experiment: Competition binding assay, PDGF-BB; set-up: purchased PeproTech, Rocky Hill, N.J; details: human PDGF-BB; read-out: Kd
Procedure: Binding reactions were carried out in phosphate-buffered saline (Cellgro, Herndon, Va.) containing 0.2 mg/mL bovine serum albumin (NEB) and 0.02 mg/mL tRNA (Sigma, St. Louis, Mo.). The reactions were equilibrated for a period of 15-30 minutes at room temperature, then filtered through a sandwich of nitrocellulose (Protran membrane, Perkin-Elmer, Boston, Mass.) and nylon (Hybond membrane, Amersham, Piscataway, N.J.) membranes to separate target bound aptamer from free aptamer.
as §2
as §3, with “(Sigma). The reactions were equilibrated for a period of 15-30 minutes at room temperature, then filtered through a sandwich of nitrocellulose (Protran membrane, Perkin-Elmer) and nylon (Hybond membrane, Amersham) membranes to separate target bound aptamer from free aptamer.” for “(Sigma).”

PDGF AB = PDGF AB (Homo sapiens, UniProt P01127); experiment: Competition binding assay, PDGF-AB; set-up: purchased PeproTech, Rocky Hill, N.J
Text: as §2, §3

PDGF BB [6] = molecular target: T1, PDGF BB; experiment: 3T3 cell proliferation assay (PDGF-BB induced); assay type: cell-based, rat; set-up: purchased PeproTech, Rocky Hill, N.J; details: after lyophilization and storage at −20 degrees celsius for 2 years
Procedure: 3T3 cells, a rat fibroblast cell line (ATCC, Manassas, Va.), were plated 3,000 cells/well in a 96 well plate one day prior to the start of the assay in 100 ul DMEM/10% FCS. The following day, cells were washed once with straight DMEM and then 75 ul DMEM/0.8% FCS was added to each well. […] Cells were incubated for 3 days. Following incubation 10 ul MTT (Promega, Madison, Wis.) was added to each well and incubated for an additional 1.5 hours. Media was then removed, 200 ul Isopropanol (2-propanol) was added to each well, cells were re-suspended thoroughly and absorbance at 570 nm was read on a 96 well plate reader.
(§4) 3T3 cells, which are derived from a rat fibroblast cell line (ATCC, Manassas, Va.), were used in a proliferation assay to test potency of modified ARC513 aptamers. 3T3 fibroblast cells have PDGF receptors on their cell-surface and respond to mitogen, e.g., PDGF stimulation by proliferation. The assay was performed as follows: 3T3 cells were plated 3,000 cells/well in a 96 well plate one day prior to the start of the assay in 100 ul DMEM/10% FCS. The following day, cells were washed once with straight DMEM and then 75 ul DMEM/0.8% FCS was added to each well. Then 25 ul of PDGF-BB (PeproTech, Rocky Hill, N.J.) at a 50 ng/ml final concentration was added to each well +/− aptamer condition to be tested. […] The functional PDGF aptamer dilutions usually consisted of 6 points in 2-fold serial dilutions.
(§5) Cells were incubated for 3 days. Following incubation 10 ul MTT (Promega, Madison, Wis.) was added to each well and incubated for an additional 1.5 hours. Media was removed, 200 μl Isopropanol (2-propanol) was added to each well, cells were re-suspended thoroughly and absorbance at 570 nm was read on a 96 well plate reader. The present example depicts the potency comparison of PDGF aptamer ARC: 513 to that of ARC 513 variants.
The 3T3 proliferation assay previously described was used to test potency of all PEG conjugated ARC513 variants described immediately above. The assay was performed as follows: 3T3 cells were plated 3,000 cells/well in a 96 well plate one day prior to the start of the assay in 100 ul DMEM/10% FCS. The following day, cells were washed once with straight DMEM and then 75 ul DMEM/0.8% FCS was added to each well. Then 25 ul of PDGF-BB (PeproTech, Rocky Hill, N.J.) at a 50 ng/ml final concentration was added to each well +/− aptamer condition to be tested. […] The functional PDGF aptamer dilutions usually consisted of 6 points in 2-fold serial dilutions.
as §5, with “ARC513” for “ARC: 513”, “PEGylated ARC513 aptamers.” for “ARC 513 variants.”
as §4, with “3T3” for “3T3 cells, which are derived from a rat fibroblast cell line (ATCC, Manassas, Va.), were used in a proliferation assay to test potency of modified ARC513 aptamers. 3T3”, “100 μl” for “100 ul”
as §5, with “[…]” for “μl”, “reader.” for “reader. The present example depicts the potency comparison of PDGF aptamer ARC: 513 to that of ARC 513 variants.”

T1 sequence (P01127 82-190 limits assumed): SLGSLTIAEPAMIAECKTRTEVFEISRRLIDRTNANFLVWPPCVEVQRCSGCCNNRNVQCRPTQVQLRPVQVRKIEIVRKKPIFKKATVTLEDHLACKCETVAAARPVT
T5 sequence (P31240 82-190 limits assumed): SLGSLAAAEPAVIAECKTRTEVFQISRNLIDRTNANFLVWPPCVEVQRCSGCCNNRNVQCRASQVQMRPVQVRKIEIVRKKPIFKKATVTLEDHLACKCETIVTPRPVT
T4 sequence (Q05028 66-174 limits assumed): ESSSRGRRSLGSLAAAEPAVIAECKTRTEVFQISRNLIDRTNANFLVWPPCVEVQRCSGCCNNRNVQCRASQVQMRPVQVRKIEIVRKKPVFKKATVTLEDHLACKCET
Chain of PDGF AB (P01127 82-190 limits assumed, other chains not shown): as the sequence (P01127 82-190 limits assumed) above

Q: How did the “phosphorylation of ERK” value (PDGF BB [1]) turn out when “LongCpGARC124: PDGF aptamer ARC124 with CpG motif appended (SEQ ID NO:21) (dG*dT*dG*dA*dA*dC*dG*dT*dT*dC*dG*dA*dG*dCdAdGdGdCdTdAdCdGdGdCdAdCdGdTdAdGdAdGdCdAdTdCdAdCdCdAdTdGdAdTdCdCdT*dG*dC[invdT]; further chemistry not fully specified)” was run?
A: can block phosphorylation of ERK

Q: “TK.131.012.A: PDGF/VEGF binding multivalent aptamer (SEQ ID NO:9) (CAGGCTACGAUGCAGUUUGAGAAGUCGCGCAUCGTAGAGCATCAGAAATGATCCTG; sugars from the 5' end d9 m23 d24, 3' [invdT], backbone not given here; further chemistry not fully specified)” was tested. Which Kd (PDGF BB [2]) did it give?
A: ~10 nM

Q: And the Kd (VEGF)?
A: ~10 nM

Q: “CpGARC124short: PDGF aptamer ARC124 with CpG motif appended (SEQ ID NO:20) (AACGTTCGAGCAGGCTACGGCACGTAGAGCATCACCATGATCCTGC; synthetic aptamer; (1)..(11) phosphorothiate backbone between nucleotides 1-11; (44)..(46) phosphorothiate backbone between nucleotides 44-46)” was tested. Which “phosphorylation of ERK” value (PDGF BB [1]) did it give?
A: can block phosphorylation of ERK

Q: With “5′-mAmUmGmCmAmGmUmUmUmGmAmGmAmAmGmUmCmGmCmGmCmAmU-[3T]-3′ (SEQ ID NO: 7) (AUGCAGUUUGAGAAGUCGCGCAU; all 2'-O-methyl, [invdT] at 3' end, backbone not given here) [ARC245]” as the substance, how does the Kd (VEGF) read?
A: ~2 nM

Q: Which “binding to PDGF-AA” value (PDGF-AA) does the source give for “5′-(SEQ ID NO: 1)-HEG-(SEQ ID NO:2)-HEG-(SEQ ID NO:3)-3′-dT-3′ (chain 1 CAGGCUACG; chain 2 CGTAGAGCAUCA; chain 3 TGATCCUG; piece 1: 2'-fluoro at 6, 8, 2'-O-methyl at 9, 3' [HEG], other sugars and backbone not given here; piece 2: 2'-O-methyl at 5, 7, 12, 2'-fluoro at 10, 11, 3' [HEG], other sugars and backbone not given here; piece 3: 2'-fluoro at 5, 6, 7, 2'-O-methyl at 8, 3' [invdT], other sugars and backbone not given here) [ARC126]” here?
A: does not bind

Q: What about the “affinity for rat PDGF-BB” value (PDGF-BB [3]) of the same substance?
A: equal affinity

Q: And the Kd (PDGF-BB [3]; read-out: affinity for rat PDGF-BB)?
A: ~0.1 nM

Q: And the “affinity for mouse PDGF-BB” value (PDGF-BB [4])?
A: equal affinity

Q: What about the Kd (PDGF-BB [4]; read-out: affinity for mouse PDGF-BB) of the same substance?
A: ~0.1 nM

Q: And the Kd (PDGF BB [2]; entirely DNA ARC126 used in the multivalent aptamer)?
A: ~0.1 nM

Q: What about the Kd (PDGF BB [5]) of the same substance?
A: ~0.1 nM

Q: What about the Kd (PDGF AB) of the same substance?
A: ~0.1 nM

Q: What about the “potency of legacy aptamers vs newly synthesized” value (PDGF BB [6]) of the same substance?
A: just as potent

Q: How did the Kd (PDGF BB [2]) turn out when “TK.131.012.B: PDGF/VEGF binding multivalent aptamer (SEQ ID NO: 10) (CAGGCTACGUGCAGUUUGAGAAGUCGCGCACGTAGAGCATCAGAAATGATCCTG; sugars from the 5' end d9 m21 d24, 3' [invdT], backbone not given here; further chemistry not fully specified)” was run?
A: ~10 nM

Q: What about the Kd (VEGF) of the same substance?
A: ~5 nM

Source: patent US20090053138A1, “Stabilized Aptamers to Platelet Derived Growth Factor and their Use as Oncology Therapeutics” (priority 2002, published 2009)
